For one experiment, the system named is P-2 mRNA. In words: P-2 mRNA expression in mEF by TAQMAN PCR after cytokine treatment. It counts as cell-based, murine. The settings on record: added singly, 14 hours. Here is the method:
(§1) Murine embryonic fibroblasts (FIG. 14A), a rectal cancer cell line (FIG. 14B), myoblast cell line (FIG. 14C), and an ovarian cell line (FIG. 14D) were treated for 14 hours with 100 U/ml interferon-α, interferon-β, and interferon-γ treated. LPS was treated at 1 ng/ml; IL-1α at 10 U/ml, IL-1β at 1 ng/ml, and TNFα at 20 ng/mL. A human embryonic kidney cell line (FIG. 14E) and cervical cancer cell line (FIG. 14F) were treated with human IFN-α at 150 U/ml, IFN-β and IFN-γ at 100 U/ml. The BV2 microglial cell line was stimulated with 100 U/ml of murine Interferon-γ for 14 hours to upregulate P-2 mRNA and protein. mEF treated with IFN-γ for 14 hours (mEF), or IFN-γ for 14 hours followed by 1 hour of treatment with […] MG-132 (mEF+MG132) (FIG. 14G). Human primary keratinocytes were analyzed for protein expression with indicated recombinant human IFN treatment (FIG. 14H). mEF were treated with E. coli or M. smegmatis. At indicated time points, cells were harvested and analyzed for P-2 mRNA and compared to uninfected controls by TAQMAN™ PCR. (FIG. 14I) mEF were either not stimulated, or stimulated for 14 hours with IFN-γ at 100 U/ml. After stimulation, mEF were infected with M. smegmatis and analyzed for colony forming units at indicated time points.
Recombinant murine IL-1α, IL-1β, TNFα, IFN-γ, IFN-α, IFN-β recombinant human IFN-γ, IFN-β were purchased from preprotech. Recombant human IFN-α was purchased from R&D systems. Murine […] was supplemented at 10 U/mL where indicated. Murine IL-1β was supplemented at 1 ng/ml. Murine TNFα was supplemented at 20 ng/ml. Murine IFN-α, IFN-β and IFN-γ was supplemented with 100 U/ml. Human IFN-α was supplemented where indicated in at a concentration of 150 U/ml where indicated. Human IFN-β and IFN-γ was supplemented at a concentration of 100 U/ml. LPS was added at a concentration of 1 ng/ml.
RNA was extracted from cells following RNeasy (Qiagen) instructions. One μg of RNA was converted to cDNA using QuantiTect Reverse Transcription kit (Qiagen) following supplier's protocol. qRT-PCR was performed using TAQMAN® Gene Expression Assays (Applied Biosystems) for murine Mpeg1 and GAPDH, with the later serving as a housekeeping control gene. For human tissues, human Mpeg1 and GapDH probes were utilized. All assays were performed on the Applied Biosystems 7300 PCR platform.
On the technique in general: Real-time PCR tracks product formation cycle by cycle.

Another experiment has as its system P-2 protein. In words: Western blot of P-2 protein in interferon-activated mEF. Type of experiment: cell-based, murine. The settings on record: IFN-γ 14 hours then 1 hour MG-132. Here is the method: as §1
Rabbit anti-Mpeg1 polyclonal antibody was obtained from Abcam and used for western blot analysis.
(In western blotting, separated proteins are transferred to a membrane and probed.)

The subject of the next experiment is Salmonella. The experiment can be described thus: Gentamycin protection assay: intracellular Salmonella in mEF. It counts as cell-based, Salmonella typhimurium. The method, then:
Mouse rectal carcinoma CMT-93 was transiently transfected with a P-2 siRNA pool, or with P-2-RFP. Scramble siRNA or RFP were also transfected and analyzed to serve as controls for P-2 siRNA and P-2-RFP respectively. All transfections were performed 24 hours prior to infection. 14 hours prior to infection, cells were incubated with 100 U/ml of species specific IFN-γ. At indicated time points after infection, cells were lysed and plated for CFU analysis. (FIGS. 16A-16D) mEF were transfected with P-2siRNA and complemented with siRNA resistant P-2-RFP cDNA 24 hours prior to infection. 14 hours prior to infection, interferon-γ was added. mEF were infected with late log phase S. typhimurium. At indicated time points mEFs were lysed and analyzed for colony forming units. […]
S. typhimurium strain LT2Z), Mycobacterium smegmatis, methicillin-resistant Staphylococcus aureus, and E. coli strain K12 were grown from glycerol stocks at 37° C. with shaking for 24 hours in Luria broth (S. typhimurium, S. aureus, and E. coli) or Middlebrook 7H9 broth (M. smegmatis). […] At indicated time points, cells were washed with PBS, lysed using 1% Igepal in ddH2O, diluted and plated in technical triplicate on LB agar plates (S. typhimurium, S. aureus, E. coli) or Middlebrook 7H11 plates (M. smegmatis) and CFU determined after sufficient colony growth.

For experiment [1], the system named is E. coli, S. typhimurium and M. smegmatis. The experiment can be described thus: Bacterial growth in medium with ROS/NO inhibitors, no PEM (OD 600). The settings on record: 10 mM, IMDM+10% FBS, 5 hours. Type of experiment: cell-based. The method, then:
E. coli, S. typhimurium and M. smegmatis were grown in IMDM+10% FBS in the presence or absence of NAC (10 mM) or L-NAME (10 mM) for 5 hours. Bacterial growth was measured by spectrophotometer at an OD of 600 nm at 1 and 4 hours after addition of inhibitors to the culture medium.

The subject of another experiment is S. typhimurium. The experiment can be described thus: Gentamycin protection assay: intracellular S. typhimurium in peritoneal macrophages (PEM). Type of experiment: cell-based, Salmonella typhimurium. The note with it: for additional effect on intracellular replication/killing when combined with P-2 knockdown: inhibitor plus P-2 siRNA knock down; for effect on intracellular killing of Salmonellae: single effector blocked, 1-5 h post-infection. Here is the method: (§2) Gentamicin protection assay: S. typhimurium strain LT2Z, Mycobacterium avium, Mycobacterium smegmatis (ATCC), methicllin resistant Staphylococcus aureus and K12 E. coli were grown from glycerol stocks at 37° C. with shaking for 16-18 hr in Luria broth (LB) (S. typhimurium, S. aureus, and E. coli) or Middlebrook 7H9 broth (Mycobacteria) prior to infection. For Salmonella, the culture was then diluted 1:33 in LB and grown for another 3 hours to induce invasive phenotype. Macrophages or microglial cells were plated (5×10^5 cells/well of a 12 well plate) and stimulated overnight with LPS (Ing/ml) and IFN-γ (100 U/ml). Cells were infected the next day at indicated MOI for 30 minutes (S. typhimurium,) or 1 hour (all other bacteria) in 37° C., 5% CO2 incubator. Cells were washed twice with PBS and fresh medium containing 50 μg/ml gentamicin was added. After 2 hours the concentration of gentamicin was lowered to 5 μg/ml. At the indicated timepoints after adding gentamicin, the cells were washed with PBS, lysed using 0.1% Triton-X in water, diluted and plated in triplicate on agar plates and CFU determined.
The current understanding of bactericidal responses in macrophages is that they are mediated by oxidative mechanisms, such as ROS and NO within the phagosome, and by phagosome-lysosome fusion. To assess the role of P-2 in comparison to ROS and NO in intracellular killing of bacteria, each of the bactericidal effectors was blocked individually or in combination with P-2, and intracellular bacterial survival in peritoneal macrophages (PEM) measured between 1 and 5 hours post-infection utilizing the gentamycin protection assay (FIGS. 1A-1C). Gentamycin is membrane impermeable and present only in the extracellular medium. Inhibition of ROS, NO or P-2 individually had different effects on different bacteria. Using S. typhimurium, ˜90% bacteria present intracellularly in PEM at 1 h were dead at 5 h in the absence of inhibitors (˜10% survival, FIG. 1 A). […] In other words without P-2 ROS and NO have little effect on killing of Salmonellae.
Here we analyze the bactericidal efficiency of each effector pathway and their synergism. We blocked each effector individually and determined intracellular survival and replication or killing of intracellular S. typhimurium and M. smegmatis. These experiments were carried out with intestinal epithelial cells (CMT93) (not shown) and in IFN-γ activated PEM (FIG. 27e) with virtually identical results. First, we ascertained that IFN-γ activated and LPS stimulated PEM produced ROS and NO and that this production is not affected by P-2 siRNA knock down. We also ascertained that the ROS and NO inhibitors used were specific and active in blocking ROS or NO (not shown). PEM are able to kill about 90% of intracellular Salmonella in the first four hours after infection when all three effectors were active in scramble siRNA transfected cells (FIG. 27e, solid lines). […] M. smegmatis is more resistant to killing by bactericidal effectors within 4 hours. […] Blockade of ROS or NO without P-2 knock down had only limited, non-significant effects on bactericidal activity against Mycobacteria.
Intracellular bactericidal activity was adapted from. In brief, bacteria were grown at 37° C. with shaking for 16-18 hours in Luria broth (LB) (S. typhimurium, S. aureus, and E. coli) or 24 hours in Middlebrook 7H9 broth (Mycobacteria) prior to infection. For S. typhimurium, E. coli, and S. aureus the culture was then diluted 1:33 in LB and grown for another 3 hours to allow the bacteria to enter log phase and for Salmonella to induce the invasive phenotype. Eukaryotic cells were transfected following Lonza's optimized protocol for the respective cells, and plated into 12-well plates post-transfection. […]

Experiment [2] relates to E. coli, S. typhimurium, M. smegmatis. The experiment can be described thus: Gentamycin protection assay in PEM infected with E. coli, S. typhimurium or M. smegmatis (FIG. 1). It counts as cell-based. The note with it: 10 mM NAC, 10 mM L-NAME or pool of 3 siRNAs, CFU at 1 h and 5 h. The method, then:
The gentamycin protection assay was carried out as in FIGS. 2A-2F. 24 h after transfection with P-2 siRNA or scrambled siRNA. PEM were infected with (FIG. 1A) E. coli, (FIG. 1B) S. typhimurium, or (FIG. 1C) M. smegmatis. Inhibitors were added 1 h before infection and maintained throughout assay. Cells were lysed and CFU determined at 1 h and 5 h post-infection. Data shown are representative of 3 experiments with 2 replicates; asterisks denote significance (p<0.05) based on students t-test.
as §2, with “Cells were infected the next day at indicated MOI for 30 minutes (S. typhimurium,) or 1 hour (all other bacteria) in 37° C., 5% CO2 incubator. Cells were washed twice with PBS and fresh medium containing 50 μg/ml gentamicin was added. After 2 hours the concentration of gentamicin was lowered to 5 μg/ml.” left out

“Also recorded” adds a separate entry of the source. Residues, ends and D or L forms follow the SMILES beside them. *: point of attachment. Cbz = O=C(OCc1ccccc1)*

As to IFNα, the “P-2 mRNA induction in mEF” value in the experiment on P-2 mRNA was “up-regulates P-2 mRNA”.

`CC(C)C[C@@H](C=O)NC(=O)[C@H](CC(C)C)NC(=O)[C@H](CC(C)C)NC(=O)OCc1ccccc1` [MG132] (Cbz-Leu-Leu-Leu-aldehyde): the “detection of P-2 protein by Western blot” value in the experiment on P-2 protein is reported as “P-2 protein is not detected by Western blot analysis of interferon-activated mEF unless the proteasome inhibitor MG132 is added”.

With TNFα, the “P-2 mRNA induction in mEF” value in the experiment on P-2 mRNA is on record as “do not induce P-2 mRNA”.

Take `Cn1cnc(N)c2ncnc1-2` [3-MA, 3-methyl-adenine]: the “effect on intracellular Salmonella replication in mEF” value in the experiment with Salmonella was “permits Salmonella replication; also recorded: allows replication of Salmonella”.

Regarding `CC(=O)N[C@@H](CS)C(=O)O` [NAC, N-Acetylcysteine], the “effect on bacterial growth in the absence of PEM” value in experiment [1] was “do not directly inhibit bacterial growth”. Further, the “survival of Salmonellae at 5 h compared to 1 h levels” value in the experiment with S. typhimurium (inhibitor 10 mM, added 1 h before infection, ~10% survival without inhibitors) is approximately 80%. Besides, in the experiment with S. typhimurium, the “additional effect on intracellular replication/killing when combined with P-2 knockdown” value is recorded as “did not further increase intracellular replication; also recorded: no further effect” and the “effect on intracellular killing of Salmonellae” value is on record as “slows down the killing activity”. In addition, the intracellular killing entry in experiment [2] was “Intracellular killing was inhibited”.

Consider `COC(=O)[C@@H](N)CCCN=C(N)N[N+](=O)[O-].Cl` [L-NAME, N^G-nitro-L-arginine-methyl ester hydrochloride], for which the “effect on bacterial growth in the absence of PEM” value in experiment [1] is listed as “do not directly inhibit bacterial growth”. In addition, in the experiment with S. typhimurium (hydrochloride), the “additional effect on intracellular replication/killing when combined with P-2 knockdown” value was “did not further increase intracellular replication” and the “effect on intracellular killing of Salmonellae” value is “slows down the killing activity”. For the same molecule, in the experiment with S. typhimurium (listed as NAME, hydrochloride), the “additional effect on intracellular replication/killing when combined with P-2 knockdown” value is recorded as “no further effect”. Further, the intracellular killing entry in experiment [2] is listed as “Intracellular killing was inhibited”.

B1: IL-1α: recombinant murine IL-1α (protein, UniProt P01582 115-270, looked up)
Interleukin-1 alpha: SAPYTYQSDLRYKLMKLVRQKFVMNDSLNQTIYQDVDKHYLSTTWLNDLQQEVKFDMYAYSSGGDDSKYPVTLKISDSQLFVSAQGEDQPVLLKELPETPKLITGSETDLIFFWKSINSKNYFTSAAYPELFIATKEQSRVHLARGLPSMTDFQIS
In the case of B1, the “P-2 mRNA induction in mEF” value in the experiment with P-2 mRNA was “do not induce P-2 mRNA”.
